{
  "source": "patent US20190336486A1",
  "about": "“METHODS FOR TREATING CANCER AND METABOLIC SYNDROME” (GLAX LLC, priority 2018, published 2019)",
  "assay_type_in_all_cases": "cell-based",
  "key": {"lung cancer cells": {"system": "lung cancer cells", "assay": "Colony formation by lung cancer cells (FIG. 10)"}, "brain CSCs [1]": {"system": "brain CSCs", "assay": "Cell proliferation of brain CSCs (FIG. 7)"}, "breast cancer cells": {"system": "breast cancer cells", "assay": "Cell proliferation of breast cancer cells (FIG. 12)"}, "colorectal CSCs": {"system": "colorectal CSCs", "assay": "Cell proliferation of colorectal CSCs (FIG. 11)"}, "glioblastoma cells": {"system": "glioblastoma cells", "assay": "Colony formation by glioblastoma cells (FIG. 8)"}, "prostate cancer cells": {"system": "prostate cancer cells", "assay": "Cell proliferation of prostate cancer cells (FIG. 13)"}, "glioblastoma cell lines": {"system": "glioblastoma cell lines", "assay": "Cell proliferation of glioblastoma cell lines (FIG. 7)"}, "[2]": {"system": "human normal lung epithelial cells (Beas 2B)", "assay": "Cell proliferation of normal lung epithelial cells (FIG. 9)"}, "lung cancer cells (A549)": {"system": "lung cancer cells (A549)", "assay": "Cell proliferation of lung cancer cells (FIG. 9)"}, "brain CSCs [3]": {"system": "brain CSCs", "assay": "Colony formation by brain CSCs (FIG. 8)"}},
  "data": [
    {"smiles": "Nc1nc(CC(=O)Nc2ccc(CCNC[C@H](O)c3ccccc3)cc2)cs1", "note": "[Mirabegron]", "values": [
      {"measurement": "colony formation", "setting": "lung cancer cells", "result": "inhibits colony formation"},
      {"measurement": "cell proliferation", "setting": "brain CSCs [1]", "result": "inhibits cell proliferation"},
      {"measurement": "cell proliferation", "setting": "breast cancer cells", "result": "inhibits cell proliferation"},
      {"measurement": "cell proliferation", "setting": "colorectal CSCs", "result": "inhibits cell proliferation"},
      {"measurement": "colony formation", "setting": "glioblastoma cells", "result": "inhibits colony formation"},
      {"measurement": "cell proliferation", "setting": "prostate cancer cells", "result": "inhibits cell proliferation"},
      {"measurement": "cell proliferation", "setting": "glioblastoma cell lines", "result": "inhibits cell proliferation"},
      {"measurement": "cell proliferation", "setting": "[2]", "result": "has no effect"},
      {"measurement": "cell proliferation", "setting": "lung cancer cells (A549)", "result": "inhibits cell proliferation"},
      {"measurement": "colony formation", "setting": "brain CSCs [3]", "result": "inhibits colony formation"}
    ]}
  ]
}
